Series [1] can be described thus: Percutaneous absorption of pindolol in rats, serum concentration by HPLC. As to conditions: for Activity (serum concentration of pindolol): relative to Control (Vehicle) = 1.0 of the same series in Table 5. Type of series: in vivo, Wistar-strain male rats. On the procedure: There were provided groups each consisting of four Wistar-strain male rats each weighing 200 to 250 g and having their dorsal skin hair shorn with an electric shaver.
Each of the test solutions (pindolol-containing preparations) was applied to the shorn dorsal skin of test rats of one of the groups in an amount of 150 μl/2.5×2.5 cm^2 and then sealed up. Three hours after the application of the test solution, the blood of the test rats was collected and measured for serum concentration of pindolol by HPLC.
For comparison, the above procedure was followed except that there was used a control solution which was the same as said test solution except for non-use of any compounds of this invention, and also followed using a comparative test solution which was the same as the test solution except for the substitution of a comparative compound for the compound of this invention.

Series [2] in a line: Skin penetration of 5-FU from test solution, diffusion cell method. Format: in vitro ADME, female hairless mice. As to conditions: for Cumulative amount of 5-FU permeated, 24 hrs later / Cumulative amount of 5-FU permeated, 48 hrs later: 3.0 wt.% test compound, 5-FU 1.8 wt.% in ethanol/water; for Activity (5-FU permeation): relative to Control (Vehicle) = 1.0.
A further series is described as follows: in vivo. As to conditions: rat.
Series [3] can be described thus: Skin penetration of pindolol from test solution, diffusion cell method. Type of series: in vitro ADME, female hairless mice. The note with it: for Activity (pindolol permeation): test solution, relative to Control (Vehicle) = 1.0.
The subject of series [4] is dorsal skin of Japanese-native rabbits. The series is described as follows: Primary skin irritation test (Draize's method). Type of series: in vivo. Also on record: key to Average irritation score, 24 hours / Average irritation score, 48 hours / Average irritation score, 72 hours: Draize points: 0-2 mild, 2-6 moderate, 6-8 severe irritation. As to conditions: for Average irritation score, 24 hours: 3% solution in polyethylene glycol 300, 24 hours after removal of plaster; for Average irritation score, 48 hours: 3% solution in polyethylene glycol 300, 48 hours after removal of plaster; for Average irritation score, 72 hours: 3% solution in polyethylene glycol 300, 72 hours after removal of plaster; for Overall evaluation (skin irritation): graded from irritation scores at 24, 48 and 72 hours. On the procedure:
As one of tests on the compounds of this invention for their topical toxicity, a primary skin irritation test was made on skins using rabbits as the subjects. More particularly, an adhesive plaster for use in batch tests, to which 100 μl of a 3% test solution of each of the compounds of Examples 12, 37, 57 and 73 of this invention in 100 ml of polyethylene glycol 300 had dropwise been applied, was applied to the hair-shorn dorsal skin of three Japanese-native rabbits weighing 2.5 to 3.0 kg each and then sealed up on the dorsal skin for 24 hours. The rabbits were evaluated three times for their dorsal skin irritative reaction 24, 48 and 72 hours after removal of the plaster by using a method in accordance with the Draize's method.
The results are as shown in Table 18 in which the overall evaluation is represented by the following equation. [formula] and is graded into mild irritation (0-2 points), moderate irritation (2-6 points) and severe irritation (6-8 points).

The conditions of series [5]: relative to Control (Vehicle) = 1.0.
Procedure: There were investigated the effects of the compound of this invention on the percutneous penetration of phenol red which is difficult to be penetrated using the dorsal skin of female hairless mice (each 9 weeks old) by a diffusion cell method which comprised adding 0.5 ml of a sodium chloride injection containing 2 mM of phenol red to the donor side and measuring the amount of phenol red permeated into the receptor layer by high-pace optimal densitometric meter (559 nm).
For series [6], the system named is glucose level in blood. The series can be described thus: Percutaneous absorption of glibenclamide: glucose level in blood of glucose-loaded rats. Type of series: in vivo, Wistar-strain male rats. As to the method: There were prepared control and test solutions having the following respective formulations (Table 8): […]
In the tests, there were used groups each consisting of four Wistar-strain male rats which weighed about 200 to 250 g and abstained from food for 24 hours.
Each of the control solutions A and B and the test solution indicated in the above Table 8 was applied to the dorsal skins, shorn by an electric clipper or shaver, of the rats of one group in an amount of 175 μl/2.5×2.5 cm^2 and then sealed up. Three hours after sealing up, 1.5 ml of 20% glucose was subcutaneously injected into said rats. Two hours after the glucose injection, the blood of the rats was collected and measured for glucose level in blood.
For comparison, the above procedure was followed except that azone was substituted for the compound of Example 12 in the test solution.
For further comparison, the blood of rats of one group which had been subjected only to 24 hours' abstinence from food (this group being hereinafter referred to as "normal group"), was measured for glucose level in blood. The rat groups to which the control solution A, the control solution B and the test solution were applied, are hereinafter referred to as "control group A", "control group B" and "test group", respectively.

The test system of series [7] is glucose level in blood. The series can be described thus: Rectal absorption of insulin from suppository: glucose level in blood of rabbits. Type of series: in vivo, male rabbits. As to the method:
There were prepared the following suppositories for use in normal, control and test groups, respectively, each group consisting of five male rabbits weighing 2.5 to 3.5 kg each.
The three suppositories were into the rectums of the rabbit groups in an amount of 0.3 g suppository/kg, respectively. Thereafter, blood was collected from the rabbits through their ear vein three times with the lapse of time to measure the three collected blood samples for glucose level in blood by a glucose oxidase method. […] The results are indicated in terms of a change in glucose level in blood with respect to the glucose level in blood prior to the administration of the suppositories.

We go through 31 compounds from patent US4882359A, “Azacycloalkane derivatives, absorption promoters containing the derivatives as the effective ingredient and external preparations containing the absorption promoters” (priority 1986, dated 1989).

Turning to `CCCCCCCCCCOCCCN1CCCCCC1=O` [Example 72], the “Activity (serum concentration of pindolol)” value in series [1] turned out to be 27.2.

Consider `CCCCCCCSCCCN1CCCCCC1=O` [Example 29], for which the “Activity (serum concentration of pindolol)” value in series [1] is 14.8.

The term LD50 denotes the dose expected to kill half of the subjects tested. For `CN1CCCC1=O` [1-methyl-2-pyrolidone, 1-methyl-2-pyrrolidone, reference compound], in series [1], the “Activity (serum concentration of pindolol)” value was 1.9. In addition, in series [2], the “Cumulative amount of 5-FU permeated, 24 hrs later” value is 83 ± 15 µM; the “Cumulative amount of 5-FU permeated, 48 hrs later” value was 192 ± 20 µM; the “Activity (5-FU permeation)” value is 0.9. In addition, the LD50 at 168 h in the series “in vivo” (po) lay in the range of 1000 to 2000 mg/kg. For the same compound, in the series “in vivo” (sc), the LD50 at 168 h was 2000 to 5000 mg/kg.

For `CCCCCCCCSCCCCN1CCCCCC1=O` [Example 38], the “Activity (serum concentration of pindolol)” value in series [1] turned out to be 12.0.

Consider `CCCCCCCSCCCCCN1CCCCCC1=O` [Example 43], for which the “Activity (serum concentration of pindolol)” value in series [1] came out at 16.2.

Take “Pyrrolidone carboxylic acid [Pyrolidone carbonic acid, reference compound]”: in series [1], the “Activity (serum concentration of pindolol)” value was found to be 2.1. In addition, the “Activity (pindolol permeation)” value in series [3] amounted to 0.5.

`CCCCCCCSCCCCN1CCCCCC1=O` [Example 37]: in series [1], the “Activity (serum concentration of pindolol)” value amounted to 16.2. In series [4], the “Average irritation score, 24 hours” value was found to be 0.6 ± 2; the “Average irritation score, 48 hours” value is 0.5 ± 0.5; the “Average irritation score, 72 hours” value is listed as 0.5 ± 0.5; the “Overall evaluation (skin irritation)” value is recorded as “Mild (mild irritation (0-2 points))”. The “Activity (phenol red permeation)” value in series [5] was determined as 54.2. Besides, the LD50 at 168 h in the series “in vivo” (po) is more than 5000 mg/kg. Also, the median lethal dose (LD50) at 168 h in “in vivo” (sc) was more than 5000 mg/kg.

Consider `CCCCCCOCCCCCCN1CCCCCC1=O` [Example 80], for which the “Activity (serum concentration of pindolol)” value in series [1] is on record as 26.1.

For `CCCCCCCCOCCCN1CCCCCC1=O` [Example 4, 1-[3-(n-octyloxy)propyl] azacycloheptane-2-one], in series [1], the “Activity (serum concentration of pindolol)” value stood at 31.5.

With `CCN1CCCC1=O` [1-ethyl-2-pyrolidone, 1-ethyl-2-pyrrolidone], the “Activity (serum concentration of pindolol)” value in series [1] is on record as 2.8. Further, in series [3], the “Cumulative amount of pindolol permeated, 24 hrs later” value was 1.3 ± 0.1 µM; the “Cumulative amount of pindolol permeated, 48 hrs later” value stood at 2.7 ± 0.2 µM; the “Activity (pindolol permeation)” value came out at 0.7. In series [2], the “Cumulative amount of 5-FU permeated, 24 hrs later” value worked out at 96 ± 15 µM; the “Cumulative amount of 5-FU permeated, 48 hrs later” value amounted to 178 ± 9 µM; the “Activity (5-FU permeation)” value is recorded as 0.9.

Take `CCCCCCOCCCCCN1CCCCCC1=O` [Example 76]: the “Activity (serum concentration of pindolol)” value in series [1] worked out at 8.3.

Turning to `CCCCCSCCCCN1CCCCCC1=O` [Example 35], the “Activity (serum concentration of pindolol)” value in series [1] is 8.8.

Regarding `CCCCCOCCCCCCN1CCCC1=O` [Example 67], the “Activity (serum concentration of pindolol)” value in series [1] amounted to 22.8.

`CCCCCCSCCCCCCN1CCCCCC1=O` [Example 48]: in series [1], the “Activity (serum concentration of pindolol)” value amounted to 14.9.

Consider `CCCCCCCCCCOCCN1CCCC1=O` [Example 57], for which the “Activity (serum concentration of pindolol)” value in series [1] is recorded as 33.0. Moreover, in series [4], the “Average irritation score, 24 hours” value was determined as 0.0 ± 0.0; the “Average irritation score, 48 hours” value was 0.3 ± 0.3; the “Average irritation score, 72 hours” value is 0.3 ± 0.3; the “Overall evaluation (skin irritation)” value is “Mild (mild irritation (0-2 points))”. Besides, the “Activity (phenol red permeation)” value in series [5] was determined as 65.5. In the series “in vivo” (po), this compound had an LD50 at 168 h of more than 5000 mg/kg. In addition, the 50% lethal dose (LD50) at 168 h in “in vivo” (sc) is more than 5000 mg/kg.

In the case of `CCCCCSCCCCCCN1CCCCCC1=O` [Example 2, 1-[6-(n-pentylthio)hexyl] azacycloheptane-2-one], the “Activity (serum concentration of pindolol)” value in series [1] amounted to 12.7.

In turn, `COc1ccc(Cl)cc1C(=O)NCCc1ccc(S(=O)(=O)NC(=O)NC2CCCCC2)cc1` [Glibenclamide] displayed a Glucose level in the series with glucose level in blood [6] (glibenclamide 0.6 wt.% solution on dorsal skin, two hours after s.c. 20% glucose) of 157 ± 7 mg/dL. The “effects on hypoglycemic activity” value in the series on glucose level in blood [6] (glibenclamide used alone, compared with control group A) is listed as “not exhibit any effects on hypoglycemic activity”. In addition, the Inhibition rate in the series on glucose level in blood [6] (glucose level, relative to control group A and normal group) was -3.6%.

For `CCCCCCCCCSCCN1CCCC1=O` [Example 1, 1-[2-(n-nonylthio)ethyl] azacyclopentane-2-one], in series [1], the “Activity (serum concentration of pindolol)” value was found to be 30.0.

For the compound `CCCCCCSCCCCN1CCCCCC1=O` [Example 36], in series [1], the “Activity (serum concentration of pindolol)” value is 19.6.

`CCCCCCCCCSCCCCN1CCCCCC1=O` [Example 39]: the “Activity (serum concentration of pindolol)” value in series [1] is recorded as 18.0.

Consider `CCCCCCCCCCSCCCN1CCCC1=O` [Example 16], for which the “Activity (serum concentration of pindolol)” value in series [1] is listed as 32.0.

`CCCCCCCCOCCCCN1CCCCCC1=O` [Example 74]: the “Activity (serum concentration of pindolol)” value in series [1] was determined as 28.9.

On to `CCCCCCCSCCCCCN1CCCC1=O` [Example 20], for which the “Activity (serum concentration of pindolol)” value in series [1] is recorded as 40.6.

With `CCCCCCCOCCCCN1CCCCCC1=O` [Example 73], the “Activity (serum concentration of pindolol)” value in series [1] amounted to 34.1. In series [4], the “Average irritation score, 24 hours” value is reported as 0.3 ± 0.3; the “Average irritation score, 48 hours” value turned out to be 0.3 ± 0.3; the “Average irritation score, 72 hours” value was 0.5 ± 0.5; the “Overall evaluation (skin irritation)” value is listed as “Mild (mild irritation (0-2 points))”. The “Activity (phenol red permeation)” value in series [5] is 56.3. This compound had an LD50 at 168 h in “in vivo” (po) of more than 5000 mg/kg. For the same compound, in the series “in vivo” (sc), the LD50 at 168 h was more than 5000 mg/kg.

With `C[S+](C)[O-]` [DMSO, dimethylsulfoxide, reference compound], the “Serum concentration of pindolol” value in series [1] (rat, in vivo, 180 min) turned out to be 12.0 ± 4.2 ng/mL. Further, the “Activity (serum concentration of pindolol)” value in series [1] is 1.0.

Turning to `CCCCSCCCCCCCN1CCCCCC1=O` [Example 49], the “Activity (serum concentration of pindolol)” value in series [1] was 23.2.

In the case of “Insulin: Insulin (Bovine, International Unit); control group (only insulin used)”, the “effects on glucose level in blood (in words)” value in the series on glucose level in blood [7] (compared with the normal group) is listed as “exhibited no effects on glucose level in blood”. In addition, in the series with glucose level in blood [7] (insulin suppository 0.3 g/kg rectal, 3% promoter where used, 0.5 hr), the “Changes of glucose level to the initial, 0.5 hr” value was -1 mg/dL. In the series on glucose level in blood [7] (insulin suppository 0.3 g/kg rectal, 3% promoter where used, 1 hr), the “Changes of glucose level to the initial, 1 hr” value is on record as “+3 mg/dl”. Further, in the series on glucose level in blood [7] (insulin suppository 0.3 g/kg rectal, 3% promoter where used, 3 hrs), the “Changes of glucose level to the initial, 3 hrs” value is “+1 mg/dl”.

As for `CCCCCCCCCSCCCN1CCCCCC1=O` [Example 31], the “Activity (serum concentration of pindolol)” value in series [1] is reported as 27.5.

Turning to `CCCCCCCOCCCCCN1CCCC1=O` [Example 66], in series [1], the “Activity (serum concentration of pindolol)” value worked out at 30.2.

Take `CCCCCCCCSCCCN1CCCCCC1=O` [Example 30]: the “Activity (serum concentration of pindolol)” value in series [1] was 12.7.

In the case of `CCCSCCCCCCCCN1CCCCCC1=O` [Example 50], in series [1], the “Activity (serum concentration of pindolol)” value worked out at 6.6.
